Results published in patent US20230278972A1, “SUBSTITUTED HALOALKYL SULFONANILIDE HERBICIDES” (FMC Corporation, priority 2020, published 2023).

Key:
Format in all cases: in vivo
[1] = test system: barnyardgrass (Echinochloa crus-galli); assay: Test A preemergence, barnyardgrass; conditions: Preemergence; for Plant response rating, Barnyardgrass: 0 to 100 scale (0 no effect, 100 complete control); for Barnyardgrass plant response rating: 125 g ai/ha, visual injury on 0 to 100 scale (0 no effect, 100 complete control), approximately 10 days
Procedure, shortened: (§1)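 Formulated with a surfactant in a non-phytotoxic solvent, compounds are applied to loam–sand pots, either to bare soil immediately after seeding (preemergence) or to seedlings of 2 to 10 cm bearing one to two leaves (postemergence).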

[2] = test system: kochia (Bassia scoparia); assay: Test A preemergence, kochia; conditions: Preemergence; for Plant response rating, Kochia: 0 to 100 scale (0 no effect, 100 complete control); for Kochia plant response rating: 125 g ai/ha, visual injury on 0 to 100 scale (0 no effect, 100 complete control), approximately 10 days
Procedure, shortened: as §1

[3] = test system: Ryegrass, Italian (Italian ryegrass, Lolium multiflorum); assay: Test A preemergence, Ryegrass, Italian; conditions: Preemergence; for Plant response rating, Ryegrass, Italian: 0 to 100 scale (0 no effect, 100 complete control); for Ryegrass, Italian plant response rating: 125 g ai/ha, visual injury on 0 to 100 scale (0 no effect, 100 complete control), approximately 10 days
Procedure, shortened: as §1

[4] = test system: Foxtail, Giant (giant foxtail, Setaria faberi); assay: Test A preemergence, Foxtail, Giant; conditions: Preemergence; for Plant response rating, Foxtail, Giant: 0 to 100 scale (0 no effect, 100 complete control); for Foxtail, Giant plant response rating: 125 g ai/ha, visual injury on 0 to 100 scale (0 no effect, 100 complete control), approximately 10 days
Procedure, shortened: as §1

[5] = test system: pigweed (Amaranthus retroflexus); assay: Test A preemergence, pigweed; conditions: for Plant response rating, Pigweed: 0 to 100 scale (0 no effect, 100 complete control); for Pigweed plant response rating: 125 g ai/ha, visual injury on 0 to 100 scale (0 no effect, 100 complete control), approximately 10 days
Procedure, shortened: (§2)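 Whole-plant herbicidal screen in pots of loam blended with sand. Sprays used a surfactant-containing, non-phytotoxic solvent vehicle. Timing was preemergence soil-directed at planting or postemergence at the one- to two-leaf stage (2–10 cm).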

[6] = test system: barnyardgrass (Echinochloa crus-galli); assay: Test A postemergence, barnyardgrass; conditions: Postemergence, 0 to 100 scale (0 no effect, 100 complete control)
Procedure, shortened: as §2

[7] = test system: kochia (Bassia scoparia); assay: Test A postemergence, kochia; conditions: Postemergence, 0 to 100 scale (0 no effect, 100 complete control)
Procedure, shortened: as §1

[8] = test system: ragweed (common ragweed, Ambrosia artemisiifolia); assay: Test A postemergence, ragweed; conditions: Postemergence, 0 to 100 scale (0 no effect, 100 complete control)
Procedure, shortened: as §1

[9] = test system: Ryegrass, Italian (Italian ryegrass, Lolium multiflorum); assay: Test A postemergence, Ryegrass, Italian; conditions: Postemergence, 0 to 100 scale (0 no effect, 100 complete control)
Procedure, shortened: as §1

[10] = test system: Foxtail, Giant (giant foxtail, Setaria faberi); assay: Test A postemergence, Foxtail, Giant; conditions: Postemergence, 0 to 100 scale (0 no effect, 100 complete control)
Procedure, shortened: as §1

[11] = test system: pigweed (Amaranthus retroflexus); assay: Test A postemergence, pigweed; conditions: Postemergence, 0 to 100 scale (0 no effect, 100 complete control)
Procedure, shortened: as §1

[12] = test system: wheat (Triticum aestivum); assay: Test A postemergence, wheat; conditions: Postemergence, 0 to 100 scale (0 no effect, 100 complete control)
Procedure, shortened: as §2

[13] = test system: corn (Zea mays); assay: Test A postemergence, corn; conditions: Postemergence, 0 to 100 scale (0 no effect, 100 complete control)
Procedure, shortened: as §1

[14] = test system: blackgrass (Alopecurus myosuroides); assay: Test A postemergence, blackgrass; conditions: Postemergence, 0 to 100 scale (0 no effect, 100 complete control)
Procedure, shortened: as §1

[15] = test system: galium (catchweed bedstraw, Galium aparine); assay: Test A postemergence, galium; conditions: Postemergence, 0 to 100 scale (0 no effect, 100 complete control)
Procedure, shortened: as §2

[16] = 1000 g ai/ha, visual injury, approx. 10 days
[17] = 125 g ai/ha, visual injury approx. 10 days
[18] = 500 g ai/ha, visual injury, approx. 10 days

Structure (SMILES)	Plant response rating, Barnyardgrass ([1]; 500 g ai/ha)	Kochia plant response rating [2]	Plant response rating, Kochia ([2]; 500 g ai/ha)	Ryegrass, Italian plant response rating [3]	Plant response rating, Ryegrass, Italian ([3]; 500 g ai/ha)	Foxtail, Giant plant response rating [4]	Plant response rating, Foxtail, Giant ([4]; 500 g ai/ha)	Pigweed plant response rating [5]	Plant response rating, Pigweed ([5]; 500 g ai/ha)	Plant response rating, Barnyardgrass [6, 17]	Plant response rating, Barnyardgrass [6, 18]	Plant response rating, Kochia [7, 17]	Plant response rating, Kochia [7, 18]	Plant response rating, Ragweed [8, 17]	Plant response rating, Ragweed [8, 18]	Plant response rating, Ryegrass, Italian [9, 17]	Plant response rating, Ryegrass, Italian [9, 18]	Plant response rating, Foxtail, Giant [10, 17]	Plant response rating, Foxtail, Giant [10, 18]	Plant response rating, Pigweed [11, 17]	further results
Cc1cc(C)c(N(S(=O)(=O)C(F)(F)F)S(=O)(=O)C(F)(F)F)cc1C(=O)N1CCSCC1 [Compound 5]	–	–	–	–	–	–	–	–	–	–	–	–	–	–	–	–	–	–	–	–	Plant response rating, Barnyardgrass ([1]; 1000 g ai/ha): 100; Plant response rating, Kochia ([2]; 1000 g ai/ha): 90; Plant response rating, Ryegrass, Italian ([3]; 1000 g ai/ha): 100; Plant response rating, Foxtail, Giant ([4]; 1000 g ai/ha): 100; Plant response rating, Pigweed ([5]; 1000 g ai/ha): 100; Plant response rating, Barnyardgrass [6, 16]: 80; Plant response rating, Kochia [7, 16]: 80; Plant response rating, Ragweed [8, 16]: 80; Plant response rating, Ryegrass, Italian [9, 16]: 30; Plant response rating, Foxtail, Giant [10, 16]: 90; Plant response rating, Pigweed [11, 16]: 80; Plant response rating, Wheat [12, 16]: 60; Plant response rating, Corn [13, 16]: 10; Plant response rating, Blackgrass [14, 16]: 0; Plant response rating, Galium [15, 16]: 90
Cc1cc(C)c(C(=O)N2CCSCC2)cc1NS(=O)(=O)C(F)(F)F [Compound 12]	–	–	–	–	–	–	–	–	–	–	–	–	–	–	–	–	–	–	–	–	Plant response rating, Barnyardgrass ([1]; 1000 g ai/ha): 100; Plant response rating, Kochia ([2]; 1000 g ai/ha): 90; Plant response rating, Ryegrass, Italian ([3]; 1000 g ai/ha): 100; Plant response rating, Foxtail, Giant ([4]; 1000 g ai/ha): 100; Plant response rating, Pigweed ([5]; 1000 g ai/ha): 100; Plant response rating, Barnyardgrass [6, 16]: 80; Plant response rating, Kochia [7, 16]: 70; Plant response rating, Ragweed [8, 16]: 60; Plant response rating, Ryegrass, Italian [9, 16]: 90; Plant response rating, Foxtail, Giant [10, 16]: 90; Plant response rating, Pigweed [11, 16]: 80; Plant response rating, Wheat [12, 16]: 60; Plant response rating, Corn [13, 16]: 20; Plant response rating, Blackgrass [14, 16]: 30; Plant response rating, Galium [15, 16]: 90
Cc1cc(C2CC2)c(NS(=O)(=O)C(F)(F)F)cc1C(=O)N1CCOCC1 [Compound 13]	100	20	50	20	30	0	10	20	60	0	40	0	10	10	30	0	0	0	10	0	Barnyardgrass plant response rating [1]: 60; Plant response rating, Pigweed [11, 18]: 20; Plant response rating, Wheat [12, 17]: 0; Plant response rating, Wheat [12, 18]: 0; Plant response rating, Corn [13, 17]: 0; Plant response rating, Corn [13, 18]: 0; Plant response rating, Blackgrass [14, 17]: 0; Plant response rating, Blackgrass [14, 18]: 0; Plant response rating, Galium [15, 17]: 20; Plant response rating, Galium [15, 18]: 30
Cc1cc(Br)c(NS(=O)(=O)C(F)(F)F)cc1C(=O)N1CCOCC1 [Compound 14]	90	70	90	60	100	70	80	80	90	40	80	40	70	60	70	0	30	40	70	60	Plant response rating, Pigweed [11, 18]: 90; Plant response rating, Wheat [12, 17]: 30; Plant response rating, Wheat [12, 18]: 70; Plant response rating, Corn [13, 17]: 0; Plant response rating, Corn [13, 18]: 20; Plant response rating, Blackgrass [14, 17]: 10; Plant response rating, Blackgrass [14, 18]: 40; Plant response rating, Galium [15, 17]: 70; Plant response rating, Galium [15, 18]: 80
O=C(c1ccc(Cl)c(NS(=O)(=O)C(F)(F)F)c1)N1CCOCC1 [Compound 15]	0	0	80	30	30	10	70	60	70	0	50	40	70	70	80	30	0	0	50	0	Barnyardgrass plant response rating [1]: 0; Plant response rating, Pigweed [11, 18]: 30; Plant response rating, Wheat [12, 17]: 0; Plant response rating, Wheat [12, 18]: 0; Plant response rating, Corn [13, 17]: 0; Plant response rating, Corn [13, 18]: 0; Plant response rating, Blackgrass [14, 17]: 0; Plant response rating, Blackgrass [14, 18]: 30; Plant response rating, Galium [15, 17]: 50; Plant response rating, Galium [15, 18]: 60
CCN(CC)C(=O)c1cc(NS(=O)(=O)C(F)(F)F)c(Cl)cc1C [Compound 21]	100	0	0	30	100	20	100	40	60	20	40	10	30	50	90	0	50	0	20	0	Barnyardgrass plant response rating [1]: 80; Plant response rating, Pigweed [11, 18]: 40; Plant response rating, Wheat [12, 17]: 0; Plant response rating, Wheat [12, 18]: 30; Plant response rating, Corn [13, 17]: 0; Plant response rating, Corn [13, 18]: 30; Plant response rating, Blackgrass [14, 17]: 10; Plant response rating, Blackgrass [14, 18]: 10; Plant response rating, Galium [15, 17]: 50; Plant response rating, Galium [15, 18]: 60
